Patent US6486162B2, “2-{3-[4-(2-t-butyl-6-trifluoromethyl-4-pyrimidinyl)-1- piperazinyl] propylthio}-4-pyrimidinol fumarate” (Abbott Laboratories, priority 1997, dated 2002)

Legend:
Assay type in all cases: physicochemical
[1] = evaluation of various acid addition salts
Description: Evaluation of various acid addition salts of 2-{3-[4-(2-t-butyl-6-trifluoromethyl-4-pyrimidyl)-1-piperazinyl)propylthio}-4-5 pyrimidinol

[2] = solubility tests of the substances
Description: It has a selectivity, Ki D2/Ki D3of 120 (cf. WO 96/02519). The compound is therefore useful for treating disorders which respond to dopamine D3ligands, eg. for treating disorders of the central nervous system, in particular schizophrenia, depressions, neuroses and psychoses. It is additionally useful for treating sleep disturbances and nausea and as antihistamine.
(§1) Furthermore, the fumarate is more soluble in polar solvents such as C1-C6-alkanols than the free base. Because of the altered solubility characteristics, it can also be purified more simply while avoiding physiologically unacceptable solvents.

[3] = stability against oxidative processes; settings: compared to the free base
Description: as §1

Compound: Hydrochloride
- Observation: stability of the compound in the acidic medium ([1]; aqueous solution of the salt is highly acidic): acidic; the compound is instable in

Compound: CC(C)(C)c1nc(N2CCN(CCCSc3nccc(O)n3)CC2)cc(C(F)(F)F)n1.O=C(O)/C=C/C(=O)O [Fumarate, fumaric acid salt of 2-{3-[4-(2-t-butyl-6-trifluoromethyl-4-pyrimidinyl)-1-piperazinyl]propylthio}-4-pyrimidinol]
- solubility in water ([2]; compared to that of the free base): substantially higher solubility
- solubility in polar solvents such as C1-C6-alkanols ([2]; compared to the free base): more soluble
- stability against oxidative processes [3]: higher stability
- Observation: hygroscopicity [1]: non-hygroscopic salt with definite

Compound: Methane sulfonate
- Observation: crystals are deliquescent and dissolve within [1]: deliquescent and dissolve within 3 h
